One data set deals with DN144 (IjFn-4′OMT). Briefly: Enzyme activity measurement with crude protein solution extract from E. coli expressing DN144. In kind it is biochemical, fringed iris (Iris japonica). The following applies: flavone substrate; for Produced compound: SAM, 30 minutes at 30° C., HPLC detection at 330 nm. The protocol:
With DN144 as a candidate protein having activity of transferring a methyl group to the 4′-position hydroxyl group of flavone C-glycoside, and using pET15b (Novagen), an E. coli expression vector pSPB7942 containing the full-length of DN144 was constructed according to the manufacturer's recommended protocol.
Vector pSPB7942 was introduced into E. coli BL21(DE3) (New England Biolabs Japan Inc) by the manufacturer's recommended protocol, to obtain E. coli transformants. The E. coli were cultured using an Overnight Express Autoinduction System 1 (Novagen), according to the manufacturer's recommended protocol. The E. coli transformants were cultured at 37° C. (approximately 4 hours) with 2 mL of prepared culture solution, to an OD600 value of 0.5. The E. coli solution was added as a preculturing solution to 50 mL of culture solution, and main culturing was carried out for two nights at 16° C. The E. coli solution cultured for two nights was centrifuged (3,000 rpm, 4° C., 15 minutes), and the collected cells were suspended in sonic buffer (composition: 40 mM KPB (pH7.5), 1 mM dithiothreitol. 50 μM amidinophenylmethanesulfonyl fluoride hydrochloride, 500 μM ethylenediaminetetraacetic acid. 2 mM MgCl2, 1 μM S-adenosylmethionine (SAM)). A 5 mL portion of sonic buffer was added for each 1 g of E. coli. The suspended E. coli cells were crushed by ultrasonic treatment and then centrifuged (15,000 rpm, 4° C., 10 minutes), and the supernatant was recovered. The supernatant was used as a crude protein solution extract from E. coli expressing DN144. A TOMY MX-307 (rotor: AR015-24) was used for centrifugal separation (Tomy Seiko Co., Ltd.).
The substrates used for activity measurement were apigenin, apigenin 7-glucoside, isovitexin 2″-rhamnoside, saponarin (isovitexin 4′-glucoside), swertisin, luteolin, luteolin 7-glucoside, isoorientin, swertiajapanin (isoorientin 7-methyl ether), delphinidin 3-glucoside, delphinidin 3,5-diglucoside and malvidin 3,5-diglucoside. A mixture of 8 μL of each 1 mM substrate (50% acetonitrile aqueous solution containing 0.1% TFA), 20 μL of 10 mM SAM, 10 μL of 1 M KPB (pH 7.5) and 20 μL of 10 mM MgCl2 adjusted to 58 μL was kept at 30° C. for 10 minutes, and then 42 μL of crude protein solution extract from DN144-expressing E. coli was added for enzyme reaction (30 minutes at 30° C.). Next, 100 μL of stop buffer (aqueous 90% acetonitrile solution containing TFA) was added to stop the enzyme reaction, and the enzyme reaction solution was analyzed by high-performance liquid chromatography (LC-2030C by Shimadzu Corp.). Detection was at 330 nm using a Shimadzu PDA SPD-M20A as the detector. The column used as a Shim-Pack FC-ODS 150 mm*4.6 min (Shimadzu GLC). Elution was performed using solution A (0.1% TFA aqueous solution) and solution B (aqueous 90% acetonitrile solution containing 0.1% TFA). The elution was with a 20-minute linear concentration Gradient from a 9:1 mixture to a 8:2 mixture, a 15-minute linear concentration gradient from a 8:2. mixture to a 2:8 mixture and a 5-minute linear concentration gradient from a 2:8 mixture to a 0:10 mixture, followed by elution with a 0:10 mixture for 1 minute. The flow rate was 0.6 mL/min. As a control, the same experiment was carried out using a crude protein solution extract from E. coli in which pET15b vector without the insert had been introduced. As a result, compounds were detected in the enzyme reaction solutions obtained by reacting the 10 different flavones with the crude protein solution extract from the DN144-expressing E. coli. […] With reaction of the 3 different anthocyanins, no peaks were detected other than for the substrates in the enzyme reaction solution. When enzyme reaction was conducted using an anthocyanin substrate, the enzyme reaction conditions were 30° C., 15 minutes, and an aqueous 90% acetonitrile solution containing 0.1% TFA and 0.24 N hydrochloric acid was used as the stop buffer. […]

A short description of data set [1]: Simulation of flavone C-glycoside copigment effect with anthocyanin (malvin): absorption spectrum. In kind it is physicochemical. The following applies: for Absorption maximum of malvin solution upon addition of flavone C-glycoside (λmax): flavone C-glycoside added at 10-equivalent molar concentration to 0.5 mM malvin. The protocol: An anthocyanin (malvin) and flavone C-glycoside were prepared to simulate the copigment effect of the flavone C-glycoside on malvin. The malvin (malvidin 3,5-diglucoside) and flavone C-glycosides (isovitexin (apigenin 6-C-glucoside), isoorientin (luteolin 6-C-glucoside) and swertisin (genkwanin 6-C-glucoside) used in the experiments were purchased from Nacalai Tesque, Inc. Embigenin (7,4′-dimethoxyisovitexin) was prepared by artificial organic synthesis from isovitexin. Each flavone C-glycoside (isovitexin, isoorientin, swertisin or embigenin) was added to the malvin at 10-equivalent molar concentration in a buffering solution at pH 5.0, and the absorption spectrum was measured. The malvin concentration was 0.5 mM.

For isovitexin 2″-rhamnoside, the “Methyltransferase activity of DN144 for the substrate” value (from here on “Methyltransferase activity of DN144”) in the data set with DN144 (IjFn-4′OMT) is listed as “strong methyltransferase activity”.
In the case of `COc1cc2oc(-c3ccc(O)cc3)cc(=O)c2c(O)c1[C@@H]1O[C@H](CO)[C@@H](O)[C@H](O)[C@H]1O` [Swertisin, genkwanin 6-C-glucoside], the values for the Produced compound result in the data set on DN144 (IjFn-4′OMT) and in the data set on DN144 (IjFn-4′OMT) (listed as swertisin) were “Embigenin” and “conversion to embigenin was confirmed”, respectively. The “Absorption maximum of malvin solution upon addition of flavone C-glycoside (λmax)” value in data set [1] (buffering solution pH 5.0) is given as 579 nm.
Turning to `COc1ccc(-c2cc(=O)c3c(O)c([C@@H]4O[C@H](CO)[C@@H](O)[C@H](O)[C@H]4O)c(OC)cc3o2)cc1` [Embigenin, 7,4′-dimethoxyisovitexin], the “Copigment effect with respect to malvin (absorbance increase, shift of absorption maximum toward long wavelength end)” value in data set [1] (10-equivalent flavone C-glycoside, 0.5 mM malvin, pH 5.0) is “highest copigment effect”. The “Absorption maximum of malvin solution upon addition of flavone C-glycoside (λmax)” value in data set [1] (buffering solution pH 5.0) was 581 nm.
With `O=c1cc(-c2ccc(O)c(O)c2)oc2cc(O)c([C@@H]3O[C@H](CO)[C@@H](O)[C@H](O)[C@H]3O)c(O)c12` [Isoorientin, luteolin 6-C-glucoside], the “Methyltransferase activity of DN144” value in the data set with DN144 (IjFn-4′OMT) is on record as “strong methyltransferase activity”. The “Absorption maximum of malvin solution upon addition of flavone C-glycoside (λmax)” value in data set [1] (buffering solution pH 5.0) is reported as 575 nm.
With `COc1cc2oc(-c3ccc(O)c(O)c3)cc(=O)c2c(O)c1[C@@H]1O[C@H](CO)[C@@H](O)[C@H](O)[C@H]1O` [Swertiajaponin, luteolin 7-methyl-6-C-glucoside], the “Methyltransferase activity of DN144” value in the data set with DN144 (IjFn-4′OMT) is reported as “strong methyltransferase activity”.
In the case of `COc1cc(-c2[o+]c3cc(O)cc(O[C@@H]4O[C@H](CO)[C@@H](O)[C@H](O)[C@H]4O)c3cc2O[C@@H]2O[C@H](CO)[C@@H](O)[C@H](O)[C@H]2O)cc(OC)c1O` [Malvin, malvidin 3,5-diglucoside], the “Absorption maximum of malvin solution (λmax)” value in data set [1] (malvin alone, 0.5 mM, buffering solution pH 5.0) is 529 nm.
As for `O=c1cc(-c2ccc(O)cc2)oc2cc(O)c([C@@H]3O[C@H](CO)[C@@H](O)[C@H](O)[C@H]3O)c(O)c12` [Isovitexin, apigenin 6-C-glucoside], the Produced compound result in the data set on DN144 (IjFn-4′OMT) was “Isocytisoside”; in the data set on DN144 (IjFn-4′OMT) (listed as isovitexin) it was “conversion to isocytisoside was confirmed”. The “Absorption maximum of malvin solution upon addition of flavone C-glycoside (λmax)” value in data set [1] (buffering solution pH 5.0) is reported as 578 nm.
